The nature of series [1]: Selectivity index, ratio of IC50 for cytotoxicity against African green monkey Vero cells to IC50 for antimalarial activity against PYR-resistant Plasmodium falciparum V1/S expressing DHFR N51I/C59R/S108N/I164L quadruple mutant.
The target of series [2] is Bifunctional dihydrofolate reductase-thymidylate synthase (Plasmodium falciparum K1, UniProt P13922). As to the kind of experiment: Inhibition of wild type Plasmodium falciparum DHFR expressed in Escherichia coli BL21(DE3) pLysS cells assessed as inhibition constant using DHF as substrate measured for 80 sec in presence of NADPH.
Bifunctional dihydrofolate reductase-thymidylate synthase, sequence (P13922 whole entry): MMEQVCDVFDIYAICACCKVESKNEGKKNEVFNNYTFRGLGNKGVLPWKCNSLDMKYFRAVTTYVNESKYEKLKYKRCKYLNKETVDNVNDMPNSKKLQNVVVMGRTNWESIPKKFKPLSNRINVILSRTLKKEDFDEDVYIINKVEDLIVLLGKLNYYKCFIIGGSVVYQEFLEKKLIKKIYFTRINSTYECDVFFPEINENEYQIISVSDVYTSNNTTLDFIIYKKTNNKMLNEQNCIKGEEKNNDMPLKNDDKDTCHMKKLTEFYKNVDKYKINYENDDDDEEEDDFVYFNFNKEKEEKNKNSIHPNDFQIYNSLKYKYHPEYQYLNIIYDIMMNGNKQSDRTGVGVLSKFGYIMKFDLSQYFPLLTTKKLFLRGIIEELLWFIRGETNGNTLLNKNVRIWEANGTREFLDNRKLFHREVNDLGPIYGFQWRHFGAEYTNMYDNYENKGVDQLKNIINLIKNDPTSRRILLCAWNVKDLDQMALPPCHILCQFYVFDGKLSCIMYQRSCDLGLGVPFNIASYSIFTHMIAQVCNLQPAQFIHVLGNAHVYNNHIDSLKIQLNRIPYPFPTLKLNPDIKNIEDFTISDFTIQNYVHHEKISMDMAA
Series [3] in a line: Inhibition of wild type Plasmodium falciparum DHFR N51I/C59R/S108N/I164L quadruple mutant expressed in Escherichia coli BL21(DE3) pLysS cells assessed as inhibition constant using DHF as substrate measured for 80 sec in presence of NADPH.
A further series has as its target T1, Dihydrofolate reductase (Homo sapiens, UniProt P00374).
T1 sequence (P00374 whole entry): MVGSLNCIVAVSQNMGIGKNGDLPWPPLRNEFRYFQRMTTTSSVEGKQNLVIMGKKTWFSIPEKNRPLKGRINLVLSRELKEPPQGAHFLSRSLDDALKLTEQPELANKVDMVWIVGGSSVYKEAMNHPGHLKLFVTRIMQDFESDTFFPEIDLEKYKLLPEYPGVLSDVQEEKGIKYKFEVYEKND
As to the kind of experiment: Inhibition of human DHFR expressed in Escherichia coli BL21(DE3) pLysS cells assessed as inhibition constant using DHF as substrate measured for 80 sec in presence of NADPH.

The test system of series [4] is Plasmodium falciparum. The series can be described thus: Antimalarial activity against PYR-sensitive Plasmodium falciparum TM4/8.2 expressing wild type DHFR incubated for 24 hrs by [3H]-hypoxanthine incorporation assay.
The test system of series [5] is Plasmodium falciparum. As to the kind of experiment: Antimalarial activity against PYR-resistant Plasmodium falciparum V1/S expressing DHFR N51I/C59R/S108N/I164L quadruple mutant infected in human erythrocytes incubated for 24 hrs by [3H]-hypoxanthine incorporation assay.
Series [6] in a line: Cytotoxicity against African green monkey Vero cells assessed as reduction in cell viability incubated for 72 hrs by sulforhodamine B assay. (In general: Sulforhodamine B stains cellular protein and so reports cell mass.)
The next series can be described thus: physchem. Conditions: octanol/phosphate buffer, pH 7.4.
Series [7] can be described thus: Inhibition of Plasmodium falciparum DHFR N51I/C59R/S108N/I164L quadruple mutant.
Series [8] relates to Plasmodium falciparum. As to the kind of experiment: Antimalarial activity against PYR-sensitive Plasmodium falciparum TM4/8.2 expressing wild type DHFR by [3H]-hypoxanthine incorporation assay. Conditions: TM4/8.2, 3 h.
Series [9] deals with Plasmodium falciparum. The series can be described thus: Antimalarial activity against PYR-resistant Plasmodium falciparum V1/S expressing DHFR N51I/C59R/S108N/I164L quadruple mutant by [3H]-hypoxanthine incorporation assay.
Series [10] in a line: Cytotoxicity against African green monkey Vero cells assessed as reduction in cell viability.
Series [11] in a line: in vitro. To be noted: human, liver microsomes. Background: Liver microsomes are vesicles of endoplasmic reticulum, rich in cytochrome P450 enzymes.
Description: Intrinsic clearance in human liver microsomes incubated up to 60 mins in presence of NADPH by LC-MS/MS analysis
Series [12] can be described thus: in vitro. To be noted: rat, liver microsomes.
Description: Intrinsic clearance in rat liver microsomes incubated up to 60 mins in presence of NADPH by LC-MS/MS analysis

Description for physchem: Lipophilicity, log D of the compound in octanol/phosphate buffer at pH 7.4 at 100 uM incubated for 2 hrs by HPLC analysis

On to `CCOC(=O)c1ccc(-c2ccc(OCCCCOc3c(N)nc(N)nc3CC)cc2)cc1`, for which, in series [1], the selectivity ratio was greater than 2.2. In addition, the figures for the Ki (in [2]; in [3]; on Dihydrofolate reductase) were 0.67 nM, 0.99 nM and greater than 250000 nM, respectively. The IC50 (in general, the concentration that gives 50% inhibition) in the series on Plasmodium falciparum [4] came out at 225 nM; with Plasmodium falciparum [5], 22800 nM. In addition, in series [6], the IC50 at 72 h is greater than 50000 nM. For the same compound, the logD (commonly the decadic logarithm of the distribution of all forms, ionised or not, between an organic phase and buffer at a given pH) at 2 h, 100 µM in the series “physchem” is greater than 2.5.

Regarding `CCc1nc(N)nc(N)c1OCCCOc1ccccc1CCC(=O)O`, the Ki (in general, the equilibrium dissociation constant of an inhibitor or competing ligand from its target) in series [7] was found to be 0.54 nM. Moreover, the IC50 with Plasmodium falciparum [8] is 5 nM; with Plasmodium falciparum [9], 56 nM; in [10] it was greater than 100000 nM. Further, the microsomal CLint at 1 h in the series “in vitro [11]” and in “in vitro [12]” was less than 3 µL/min/mg in each case.

Values taken from ChEMBL document CHEMBL5584290, “Novel flexible biphenyl PfDHFR inhibitors with improved antimalarial activity” (RSC Med Chem, 2024).
